{"source": "patent US4663309A", "about": "“Novel peptide hormones with calcitonin-like activity” (University Patents, Inc., priority 1985, dated 1987)", "key": {"[1]": {"assay": "Circular dichroism spectra, alpha-helical structure in solution", "format": "physicochemical", "excerpt": "The circular dichroism (CD) spectra of MCT-I and salmon calcitonin (designated \"SCT-I\", available from Armour Pharmaceuticals, Kankakee, IL and used without further purification) from 250 nm to 205 nm show minima at 222 nm and 208 nm characteristic of α-helical structure. For MCT-I, the mean residue molar ellipticity at 222 nm, [θ]222, was -7,800 deg.cm^2 /dmol (10^-4 M peptide, 0.02M sodium phosphate buffer, 0.16M KCl, pH 7.4), from which the α-helicity was estimated to be 30% (assuming no contribution to CD by β-sheet structure) according to the method of Morrisett, J. D., J. S. K. Davis, H. J. Pownall, and A. M. Gotto, Biochemistry 12:1290 (1973). […] Similarly, the value of [θ]222 for solutions of SCT-I over the same concentration range and under the same conditions also remains constant at -4,600 deg.cm^2 /dmol, leading to an estimate of 20% α-helix for this peptide. In 50% trifluoroethanol, a structure promoting solvent, both MCT-I and SCT-I were estimated to be 50% α-helical at a concentration of 5×10^-5 M, as was found by Brewer, H. D. and H. Edelhoch, J. Biol. Chem. 245:2402 (1970) for porcine calcitonin (PCT) in 50% 2-chloroethanol.\nThe circular dichroic spectra of MCT-II solutions buffered with 0.02M sodium phosphate at pH 7.4 and containing 0.16M KCl were measured from 250 nm to 200 nm using a Carey 60™ spectropolarimeter (Varian Instruments, Palo Alto. CA). The spectrometer cells used were washed with concentrated nitric acid, rinsed thoroughly with deionized water, then treated with a 1% aqueous polyethylene glycol (Mr 15K-20K) solution for 1 hr and finally rinsed with water before using. The molar ellipticities obtained from the circular dichroic spectra of MCT-II from 240 nm to 204 nm were fitted by a linear combination of three different basis functions derived from the spectra described by Greenfield, N. and G. D. Fasman, Biochem. 8:4108(1969) for α-helix, β-sheet, and random coil structure. […] Since there was no significant contribution to the spectrum from β-sheet structure, we used the mean residue molar ellipticity at 222 nm, [ θ]222, to estimate changes in α-helical structure (Morrisett et al., supra). The results are given in FIG. 3; each data point represents the mean from two experiments. […] [θ]222 for the monomer was -5,200 deg.cm^2 /dmol (20% α-helix) and -10,475 deg.cm^2 /dmol (35% α-helix) for the trimer. […] This dissociation constant corresponds to a 4.5 kcal/mol of stabilization energy per monomer for trimerization. Under similar conditions and over the same concentration range [θ]222 for MCT-I and SCT-I remained constant at -7,800 deg.cm^2 /dmol and -4,600 deg.cm^2 /dmol, respectively."}, "[2]": {"assay": "Binding to single bilayer egg lecithin vesicles", "format": "physicochemical", "conditions": "for Adsorption to the surface of single bilayer egg lecithin vesicles: 1 to 100 μM peptide, SCT-I at pH 7.4 or pH 3.0; for N, upper limit of bound peptide per vesicle / Kd: 7×10^-4 M lecithin; for N, upper limit of bound peptide per vesicle: pH 7.4; for Kd: pH 7.4, 45 min at 21° C., read-out: K, dissociation constant for vesicle binding; for A∞·N product: A∞ from the monolayer studies in Example 7", "description": "Egg lecithin single bilayer vesicles (SBVs) were prepared by rapid injection of an ethanolic egg yolk lecithin (Avanti Polar-Lipids Inc., Birmingham, AL) solution into aqueous 0.16M KCl by the method of Batzri, S. and E. D. Korn, Biochim. Biophys. Acta 298:1015(1973) and purified by filtration through a 2.5 cm×87 cm column of Fractogel TSK HW-75(F)™ (Pierce Chemical Co., Rockford, IL). After purification, vesicles were characterized by gel filtration through a 1.5 cm×40 cm column of Sepharose CL-4B™ (Pharmacia Fine Chemicals) by the method of Batzri and Korn, supra. The concentration of vesicles in stock solutions were determined by the phosphate assay of Ames, B. N. and D. T. Dubin, J. Biol. Chem. 235:769(1960). In a typical binding experiment, varying concentrations of peptide were incubated for 45 min at 21° C. with vesicles (7×10^-4 M lecithin) in 0.02M sodium phosphate buffer, pH 7.4 containing 0.16M KCl in a total volume of 300 μl for 45 min. Free peptide was separated from vesicle-bound peptide by rapid filtration through a 1.4 cm×6.3 cm column of Sepharose CL-6B™ (Pharmacia Fine Chemicals) using the same buffer as above the eluent. The concentration of peptide in each fraction was determined using fluorescamine after first disrupting the vesicles with isopropanol (20% by volume).\nThe data for MCT-I and MCT-II were analyzed according to the equation Pf =(N·V·Pf /Pb)-K (Adamson, A. W., Physical Chemistry of Surfaces, 3rd Ed. (Wiley Interscience, New York, 1976), p. 388), where Pf and Pb are the concentration of free and bound peptide respectively, V is the initial molarity of vesicles (3200 phospholipids per vesicle), N is the upper limit of Pf /V, and K is the dissociation constant. Plots of V·Pf /Pb versus Pf were linear and gave K=12.9±4.8 μM with N=50±5 for MCT-I and K=6.7±1.7 μM, N= 68±2 for MCT-II. The product, A.infin. ·N, where A.infin. was obtained from the monolayer studies in Example 7, are nearly the same (A.infin. ·N(MCT-I) =2.2±0.2×10^4 Å^2, A.infin. ·N(MCT-II) =2.5±0.1×10^4 Å^2), accounting for the difference in observed values of N. A.infin. ·N is also in reasonable agreement with estimates of the available surface area between the phospholipid head groups of 230 Å diameter vesicles (1.8±0.6×10^4 Å^2; Kupferberg, J. P., S. Yokoyama, and F. J. Kezdy, J. Biol. Chem. 256:6274(1981))."}}, "note": "Bridge positions count the residues as written; N and C are the ends. Peptide text beside a SMILES is read from it.", "data": [{"smiles": "CC(C)C[C@H](NC(=O)[C@H](CCCCN)NC(=O)[C@H](CCC(N)=O)NC(=O)[C@H](CC(C)C)NC(=O)[C@H](CCC(N)=O)NC(=O)[C@H](CCC(N)=O)NC(=O)[C@H](CC(C)C)NC(=O)[C@H](CC(C)C)NC(=O)[C@@H]1CSSC[C@H](N)C(=O)N[C@@H](CO)C(=O)N[C@@H](CC(N)=O)C(=O)N[C@@H](CC(C)C)C(=O)N[C@@H](CO)C(=O)N[C@@H]([C@@H](C)O)C(=O)N1)C(=O)N[C@@H](CC(C)C)C(=O)N[C@@H](CCC(N)=O)C(=O)N[C@@H](CCCCN)C(=O)N[C@@H](CC(C)C)C(=O)N[C@@H](CCCCN)C(=O)N[C@@H](CCC(N)=O)C(=O)N[C@@H](Cc1ccc(O)cc1)C(=O)N1CCC[C@H]1C(=O)N[C@@H](CCCNC(=N)N)C(=O)N[C@H](C(=O)N[C@@H](CC(N)=O)C(=O)N[C@H](C(=O)NCC(=O)N[C@@H](CO)C(=O)NCC(=O)N[C@H](C(=O)N1CCC[C@H]1C(N)=O)[C@@H](C)O)[C@@H](C)O)[C@@H](C)O", "note": "[MCT-II] (H-CSNLSTCLLQQLQKLLQKLKQYPRTNTGSGTP-NH2; disulfide 1-7; N-terminus assumed)", "values": [{"measurement": "Stabilization energy per monomer for trimerization", "setting": "[1]", "value": 4.5, "unit": "kcal/mol"}, {"measurement": "α-helix of the monomer", "setting": "[1]; monomer", "value": 20, "unit": "%"}, {"measurement": "Dissociation constant (Kd) for the oligomer", "setting": "[1]; monomer/trimer equilibrium", "value": "5.06×10^-11 M^2"}, {"measurement": "[θ]222 for the monomer", "setting": "[1]; monomer, 0.02M sodium phosphate pH 7.4, 0.16M KCl", "value": "-5,200 deg.cm^2 /dmol"}, {"measurement": "α-helix of the trimer", "setting": "[1]; trimer", "value": 35, "unit": "%"}, {"measurement": "[θ]222 for the trimer", "setting": "[1]; trimer, 0.02M sodium phosphate pH 7.4, 0.16M KCl", "value": "-10,475 deg.cm^2 /dmol"}, {"measurement": "Adsorption to the surface of single bilayer egg lecithin vesicles", "setting": "[2]", "value": "adsorb to the surface"}, {"measurement": "N, upper limit of bound peptide per vesicle", "setting": "[2]", "value": "68±2"}, {"measurement": "Kd", "setting": "[2]", "value": "6.7 ± 1.7", "unit": "µM"}, {"measurement": "A∞·N product", "setting": "[2]", "value": "2.5±0.1×10^4 Å^2"}]}, {"smiles": "CC(C)C[C@@H]1NC(=O)[C@H](CC(N)=O)NC(=O)CNC(=O)[C@@H](N)CSSC[C@@H](C(=O)N[C@@H](CC(C)C)C(=O)N[C@@H](CC(C)C)C(=O)N[C@@H](CCC(N)=O)C(=O)N[C@@H](CCC(N)=O)C(=O)N[C@@H](Cc2c[nH]c3ccccc23)C(=O)N[C@@H](CCC(N)=O)C(=O)N[C@@H](CCCCN)C(=O)N[C@@H](CC(C)C)C(=O)N[C@@H](CC(C)C)C(=O)N[C@@H](CCC(N)=O)C(=O)N[C@@H](CCCCN)C(=O)N[C@@H](CC(C)C)C(=O)N[C@@H](CCCCN)C(=O)N[C@@H](CCC(N)=O)C(=O)N[C@@H](CC(C)C)C(=O)N2CCC[C@H]2C(=O)N[C@@H](CCCNC(=N)N)C(=O)N[C@H](C(=O)N[C@@H](CC(N)=O)C(=O)N[C@H](C(=O)NCC(=O)N[C@@H](CO)C(=O)NCC(=O)N[C@H](C(=O)N2CCC[C@H]2C(N)=O)[C@@H](C)O)[C@@H](C)O)[C@@H](C)O)NC(=O)[C@H]([C@@H](C)O)NC(=O)[C@H](CO)NC1=O", "note": "[MCT-I] (H-CGNLSTCLLQQWQKLLQKLKQLPRTNTGSGTP-NH2; disulfide 1-7)", "values": [{"measurement": "α-helicity estimated from [θ]222", "setting": "[1]; 0.02M sodium phosphate, 0.16M KCl, pH 7.4", "value": 30, "unit": "%"}, {"measurement": "Mean residue molar ellipticity at 222 nm, [θ]222", "setting": "[1]; 0.02M sodium phosphate, 0.16M KCl, pH 7.4, constant from 10^-7 M to 10^-4 M", "value": "-7,800 deg.cm^2 /dmol"}, {"measurement": "α-helicity in 50% trifluoroethanol", "setting": "[1]; 5×10^-5 M peptide", "value": 50, "unit": "%"}, {"measurement": "Adsorption to the surface of single bilayer egg lecithin vesicles", "setting": "[2]", "value": "adsorb to the surface"}, {"measurement": "N, upper limit of bound peptide per vesicle", "setting": "[2]", "value": "50±5"}, {"measurement": "Kd", "setting": "[2]", "value": "12.9 ± 4.8", "unit": "µM"}, {"measurement": "A∞·N product", "setting": "[2]", "value": "2.2±0.2×10^4 Å^2"}]}]}
